Measurements from US8940314B2, “Repellent to insects harmful to a plant and method for repelling the same” (Riken, priority 2004, dated 2015).

Experiments:
Format in all cases: in vivo
cotton aphid = experiment: Repelling effect on cotton aphid, treated cucumber true leaves; conditions: ingredient 80 parts + auxiliary A 20 parts, 200 mg/100 ml water, 7 days at 22 to 30° C., number of adult insects vs distilled water area
Method: Main ingredients (80 parts by mass) and auxiliary A (polyoxyethylene (5) monododecyl ether) (20 parts by mass) listed in Table 3 were mixed to prepare a sample of the repellent of the present invention.
(§1) The repellent was diluted with water to 200 mg/100 ml which was then applied to true leaves of cucumber (variety: Sagami Hanjiro at 0.7 leaf stage). As control samples, auxiliary A alone and distilled water were used. After drying, the plant was maintained at 22 to 30° C. for 7 days in an isolated room in which cotton aphid were grown and the number of adult insects that came flying was counted with time. A repelling ratio was determined according to the following formula. Repelling ratio (%)=100×[1−(the number of adult insects in the repellent applied area)/(the number of adult insects in the distilled water applied area)]

silverleaf whitefly = experiment: Repelling effect on silverleaf whitefly, treated cucumber seed leaves; conditions: ingredient 80 parts + auxiliary B 20 parts, 200 mg/100 ml water, 3 days at 22 to 30° C., number of adult insects vs distilled water area
Method: (§2) (polyoxyethylene phenyl ether+dodecylbenzenesulufonate): soybean oil (1:1:1) (20 parts by mass) listed in Table 2 were mixed to prepare a sample of the repellent of the present invention. The repellent was diluted with water to 200 mg/100 ml which was then applied to seed leaves of cucumber (variety: Sagami Hanjiro). As control samples, auxiliary B alone and distilled water were used. After drying, the plant was maintained at 22 to 30° C. for 3 days in an isolated room in which adult silverleaf whiteflies were grown and the number of adult insects that came flying was counted with time. A repelling ratio was determined according to the following formula.

greenhouse whitefly = experiment: Repelling effect on greenhouse whitefly, treated common bean seed leaves; conditions: ingredient 80 parts + auxiliary A 20 parts, 200 mg/100 ml water, 3 days at 22 to 30° C., number of adult insects vs distilled water area
Method: Main ingredients (80 parts by mass) and auxiliary A (polyoxyethylene (5) monododecyl ether) (20 parts by mass) listed in Table 1 were mixed to prepare a sample of the repellent of the present invention.
as §1, with “seed” for “true”, “common bean” for “cucumber”, “Taisho Kintoki).” for “Sagami Hanjiro at 0.7 leaf stage).”, “3” for “7”, “adult greenhouse whiteflies” for “cotton aphid”

green peach aphid = experiment: Repelling effect on green peach aphid, treated eggplant seed leaves; conditions: ingredient 80 parts + auxiliary B 20 parts, 200 mg/100 ml water, 7 days at 22 to 30° C., number of adult insects vs distilled water area
Method: as §2, with “oil (1:1:1))” for “oil (1:1:1)”, “Table 4” for “Table 2”, “of eggplant” for “of cucumber”, “(variety: Senryo No. 2).” for “(variety: Sagami Hanjiro).”, “for 7” for “for 3”, “which green peach aphid” for “which adult silverleaf whiteflies”

western flower thrips = experiment: Repelling effect on western flower thrips, insect damage on treated eggplant true leaves; conditions: ingredient 80 parts + auxiliary A 20 parts, 200 mg/100 ml water, 10 days at 22 to 30° C., total degree of insect damage vs distilled water area
Method: Main ingredients (80 parts by mass) and auxiliary A (polyoxyethylene (5) monododecyl ether) (20 parts by mass) listed in Table 5 were mixed to prepare a sample of the repellent of the present invention. The repellent was diluted with water to 200 mg/100 ml which was then applied to true leaves of eggplant (variety: Senryo No. 2 at 3.5 leaf stage). As control samples, auxiliary A alone and distilled water were used. After drying, the plant was maintained at 22 to 30° C. for 10 days in an isolated room in which adult western flower thrips were grown and the degree of insect damage (the number of insect damage spots) was observed and were totaled based on the criteria: 0 for no damage, 1 for very slight damage, 3 for slight damage, 5 for remarkable damage and 10 for serious damage. A repelling ratio was determined according to the following formula.

Thrips palmi Karny = experiment: Repelling effect on Thrips palmi Karny, insect damage on treated eggplant true leaves; conditions: ingredient 80 parts + auxiliary B 20 parts, 200 mg/100 ml water, 10 days at 22 to 30° C., total degree of insect damage vs distilled water area
Method: The same procedures in Example 5 were repeated to prepare the repellent except that auxiliary B (diglycerin monooleate : (polyoxyethylene phenyl ether+dodecylbenzenesulufonate): soybean oil (1:1:1)) was used in place of auxiliary A.
The repellent was diluted with water to 200 mg/100 ml which was then applied to true leaves of eggplant (variety: Senryo No. 2 at 3.5 leaf stage). As control samples, auxiliary B alone and distilled water were used. After drying, the plant was maintained at 22 to 30° C. for 10 days in an isolated room in which adult Thrips palmi Karny were grown and the degree of insect damage (the number of insect damage spots) was observed and were totaled based on the criteria: 0 for no damage, 1 for very slight damage, 3 for slight damage, 5 for remarkable damage and 10 for serious damage. A repelling ratio was determined according to the following formula. Repelling ratio (%)=100×[1−(the total degree of insect damage in the repellent applied area)/(the total degree of insect damage in the distilled water applied area)]

| Compound | Repelling ratio (%) (cotton aphid) | Repelling ratio (%) (silverleaf whitefly) | Repelling ratio (%) (greenhouse whitefly) | Repelling ratio (%) (green peach aphid) | Repelling ratio (%) (western flower thrips) | Repelling ratio (%) (Thrips palmi Karny) |
| --- | --- | --- | --- | --- | --- | --- |
| CCCCCCCCCC(=O)O [1-18, n-capric acid] | 76 | 86 | 90 | 68 |  |  |
| CCCCCCCC/C=C\CCCCCCCC(=O)O [1-19, oleic acid] | 70 | 68 | 84 | 70 | 76 | 69 |
| CC(C)CCCCCCCCCCCCCCC(=O)O [1-20, isostearic acid] |  | 65 | 72 |  |  |  |
| OC[C@@H](O)[C@H]1OC[C@H](O)[C@H]1O [1-21, sorbitan] | 68 | 67 | 74 | 62 |  |  |
| CCCCCCCCCCCC(=O)OCC(COC(=O)CCCCCCCCCCC)OC(=O)CCCCCCCCCCC [5-22, glycerin trilaurate] |  |  |  |  | 82 | 90 |
| OC[C@@H](O)[C@@H](O)[C@H](O)[C@@H](O)CO [5-23, sorbitol] |  |  |  |  | 61 | 55 |
| citric acid unsaturated fatty acid monoglyceride [1-7] | 92 | 71 | 73 | 81 |  |  |
| decaglycerin laurate [1-9] | 90 | 70 | 80 | 83 |  |  |
| decaglycerin oleate [1-8] | 95 | 75 | 76 | 78 |  |  |
| decaglycerin stearate [5-7] |  |  |  |  | 77 | 70 |
| diglycerin monostearate [5-5] |  |  |  |  | 60 | 55 |
| glycerin diacetomonolaurate [1-6] | 82 | 94 | 96 | 77 |  |  |
| glycerin monoacetomonostearate [5-8] |  |  |  |  | 68 | 55 |
| glycerin monocaprylate [1-1] | 88 | 73 | 82 | 76 |  |  |
| glycerin monolaurate [5-1] |  |  |  |  | 62 | 65 |
| glycerin monooleate [1-2] | 85 | 70 | 82 | 81 |  |  |
| glycerin monopalmitate [5-3] |  |  |  |  | 68 | 71 |
| glycerin monostearate [5-2] |  |  |  |  | 58 | 62 |
| poly (2-3) glycerin oleate [5-6] |  |  |  |  | 58 | 68 |
| polyoxyethylene (5) monododecyl ether [1-23, reference compound] | 3 |  | 5 |  | 8 |  |
| polyoxyethylene (20) sorbitan [5-13] |  |  |  |  | 68 | 54 |
| polyoxyethylene (40) sorbitan [1-15] | 75 | 85 | 70 | 82 | 75 | 69 |
| polyoxyethylene (60) sorbitan [1-16] | 78 | 77 | 73 | 80 |  |  |
| propylene glycol monooleate [1-10] | 82 | 73 | 82 | 76 | 80 | 81 |
| sorbitan laurate [1-4] | 96 | 92 | 92 | 82 | 53 | 63 |
| sorbitan oleate [1-5] | 93 | 75 | 80 | 85 |  |  |
| sorbitan palmitate [5-11] |  |  |  |  | 72 | 73 |
| succinic acid saturated acid monoglyceride [5-9] |  |  |  |  | 70 | 71 |
| sucrose fatty acid ester (laurate) [5-25] |  |  |  |  | 55 | 68 |
| sucrose fatty acid ester (oleate) [5-24] |  |  |  |  | 58 | 62 |
